# Where two headings read alike, the source gives them in different places.
# What was measured:
# Proteus vulgaris TB-162 = test: MIC (minimum inhibitory concentration); format: cell-based; conditions: tobramycin resistant organism
# [1] = tested on: Pseudomonas aeruginosa TB-151; test: MIC (minimum inhibitory concentration); format: cell-based; conditions: tobramycin resistant organism
# [2] = Proteus vulgaris, TB162, Table 3, read-out: MIC
# [3] = Pseudomonas aeruginosa, TB151, Table 3, read-out: MIC
# [4] = Proteus vulgaris, TB162, Table 2, read-out: MIC
# [5] = Pseudomonas aeruginosa, TB151, Table 2, read-out: MIC
Compound,MIC (Proteus vulgaris TB-162; [2]) [µg/mL],"MIC [1, 3] [µg/mL]",MIC (Proteus vulgaris TB-162; [4]) [µg/mL],"MIC [1, 5] [µg/mL]",MIC (Proteus vulgaris TB-162; Table 2) [µg/mL],MIC ([1]; Table 2) [µg/mL]
"NC[C@H]1O[C@H](O[C@H]2[C@H](O)[C@@H](O[C@H]3O[C@H](CO)[C@@H](O)[C@H](N)[C@H]3O)[C@H](NC(=O)C3(O)CCNC3)C[C@@H]2N)[C@H](O)[C@@H](O)[C@@H]1O (stereo partly drawn) [KM-A der., 1-N-(3-hydroxypyrrolidine-3-carbonyl)-kanamycin A]",3.13,6.25,,,,
"NC[C@H]1O[C@H](O[C@H]2[C@H](O)[C@@H](O[C@H]3O[C@H](CO)[C@@H](O)[C@H](N)[C@H]3O)[C@H](N)C[C@@H]2N)[C@H](O)[C@@H](O)[C@@H]1O [KM-A, kanamycin A]",> 100,> 100,> 200,> 200,,
"CN[C@@H]1[C@@H](O)[C@@H](O[C@@H]2[C@@H](O)[C@H](O[C@H]3OC(CN)=CC[C@H]3N)[C@@H](N)C[C@H]2N)OC[C@]1(C)O [SSM, sisomicin]",,,12.5,> 200,,
NC[C@H]1O[C@H](O[C@H]2[C@H](O)[C@@H](O[C@H]3O[C@H](CO)[C@@H](O)[C@H](N)[C@H]3O)[C@H](NC(=O)C3(O)CCNCC3)C[C@@H]2N)[C@H](N)C[C@@H]1O [TOB der.],1.56,3.13,6.25,6.25,,
"NC[C@H]1O[C@H](O[C@H]2[C@H](O)[C@@H](O[C@H]3O[C@H](CO)[C@@H](O)[C@H](N)[C@H]3O)[C@H](N)C[C@@H]2N)[C@H](N)C[C@@H]1O [TOB, tobramycin]",6.25,100,12.5,100,,
gentamicin [GM],,,,,6.25,100

# Source: patent publication US4166114A, “Aminoglycoside antibiotic derivatives and method of use” (Shionogi & Co., Ltd., priority 1976, dated 1979)
